In brackets after ≈: the same amount, converted by molar mass. Bounds are passed on as bounds.

For the assay, the system named is S aureus A798. Description: Minimal inhibitory concentration (MIC), microdilution method in cation-adjusted Mueller-Hinton Broth following NCCLS guidelines. The assay is classed as cell-based. The note with it: pH of test medium 7.2-7.3. The gist of the method: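 Broth microdilution per NCCLS M7-A4 in cation-adjusted Mueller-Hinton broth at pH 7.2-7.3; MIC reported in mg/l.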
Turning to `COc1ccc2nccc(N3CCN(C[C@@H]4CN(c5ccc(OC)c(C(F)(F)F)c5)C(=O)O4)CC3)c2n1` [Example 33, (R)-5-[4-(6-Methoxy-[1,5]naphthyridin-4-yl)-piperazin-1-ylmethyl]-3-(4-methoxy-3-trifluoromethyl-phenyl)-oxazolidin-2-one], the minimal inhibitory concentration (MIC) – broadly, the lowest concentration found to suppress growth – turned out to be 4 µg/mL (≈ 7.73 µM). On the same count and under the same terms, with `COc1ccc2nccc(N3CC(N(C)C[C@@H]4CN(c5ccc(Br)c(C)c5)C(=O)O4)C3)c2n1` [Example 143, (R)-3-(4-Bromo-3-methyl-phenyl)-5-({[1-(6-methoxy-[1,5]naphthyridin-4-yl)-azetidin-3-yl]-methyl-amino}-methyl)-oxazolidin-2-one] the figure was at most 0.031 µg/mL.

As to `COc1ccc2nccc(N3CC(NC[C@@H]4CN(c5ccc6c(c5)NC(=O)CO6)C(=O)O4)C3)c2c1` [Example 156, 6-((R)-5-{[1-(6-Methoxy-quinolin-4-yl)-azetidin-3-ylamino]-methyl}-2-oxo-oxazolidin-3-yl)-4H-benzo[1,4]oxazin-3-one], the MIC was at most 0.031 µg/mL. The same measure, in the same setting: for `COc1ccc2nccc(N3CCC(NC[C@@H]4CN(c5ccc6c(c5)NC(=O)CS6)C(=O)O4)CC3)c2n1` [Example 119, 6-((R)-5-{[1-(6-Methoxy-[1,5]naphthyridin-4-yl)-piperidin-4-ylamino]-methyl}-2-oxo-oxazolidin-3-yl)-4H-benzo[1,4]thiazin-3-one] the value was at most 0.031 µg/mL. For `COc1ccc2nccc(N3CC4C(C3)C4NC[C@@H]3CN(c4ccc5c(c4)NC(=O)CS5)C(=O)O3)c2n1` (stereo partly drawn) [Example 89, 6-((R)-5-{[(1α,5α,6α)-3-(6-Methoxy-[1,5]naphthyridin-4-yl)-3-aza-bicyclo[3.1.0]hex-6-ylamino]-methyl}-2-oxo-oxazolidin-3-yl)-4H-benzo[1,4]thiazin-3-one], the “MIC S aureus A798” value is recorded as “<=0.031 mg/l”.

`COc1cccc(N2C[C@@H](CN3CCN(c4ccnc5ccc(OC)nc45)CC3)OC2=O)c1` [Example 24, (R)-5-[4-(6-Methoxy-[1,5]naphthyridin-4-yl)-piperazin-1-ylmethyl]-3-(3-methoxy-phenyl)-oxazolidin-2-one] returned a minimum inhibitory concentration (MIC) of 0.25 µg/mL (≈ 0.556 µM). As for `COc1ccc2nccc(N3C[C@@H](NC[C@@H]4CN(c5ccc6c(c5)NC(=O)CS6)C(=O)O4)[C@H](OC)C3)c2n1` (relative stereo) [Example 75, 6-((R)-5-{[(3R*,4R*)-4-Methoxy-1-(6-methoxy-[1,5]naphthyridin-4-yl)-pyrrolidin-3-ylamino]-methyl}-2-oxo-oxazolidin-3-yl)-4H-benzo[1,4]thiazin-3-one], the MIC is at most 0.031 µg/mL. The same measure, in the same setting: with `COc1ccc(N2C[C@@H](CNC3CCN(c4ccnc5ccc(OC)nc45)CC3)OC2=O)cc1` [Example 183, (R)-5-{[1-(6-Methoxy-[1,5]naphthyridin-4-yl)-piperidin-4-ylamino]-methyl}-3-(4-methoxy-phenyl)-oxazolidin-2-one] the figure was 0.25 µg/mL (≈ 0.539 µM).

Compound `COc1ccc2nccc(N3CC(N(C)C[C@@H]4CN(c5ccc6ncsc6c5)C(=O)O4)C3)c2n1` [Example 144, (R)-3-Benzothiazol-6-yl-5-({[1-(6-methoxy-[1,5]naphthyridin-4-yl)-azetidin-3-yl]-methyl-amino}-methyl)-oxazolidin-2-one] had an MIC of 0.063 µg/mL (≈ 0.132 µM). Same read-out and setting: for `COc1ccc2cccc(N3CC(NC[C@@H]4CN(c5ccc6c(c5)NC(=O)CS6)C(=O)O4)C3)c2n1` [Example 158, 6-((R)-5-{[1-(2-Methoxy-quinolin-8-yl)-azetidin-3-ylamino]-methyl}-2-oxo-oxazolidin-3-yl)-4H-benzo[1,4]thiazin-3-one] the value was at most 0.031 µg/mL; for `COc1ccc2nccc(N3C[C@H](NC(=O)[C@@H]4CN(c5ccc6c(c5)OCCO6)C(=O)O4)C[C@H]3CO)c2n1` [Example 78, (S)-3-(2,3-Dihydro-benzo[1,4]dioxin-6-yl)-2-oxo-oxazolidine-5-carboxylic acid [(3R,5S)-5-hydroxymethyl-1-(6-methoxy-[1,5]naphthyridin-4-yl)-pyrrolidin-3-yl]-amide], at most 0.031 µg/mL; for `COc1ccc2nccc(N3CC(N(C)C[C@@H]4CN(c5ccc(OC(F)F)cc5)C(=O)O4)C3)c2n1` [Example 134, (R)-3-(4-Difluoromethoxy-phenyl)-5-({[1-(6-methoxy-[1,5]naphthyridin-4-yl)-azetidin-3-yl]-methyl-amino}-methyl)-oxazolidin-2-one], at most 0.031 µg/mL. On the same count and under the same terms, for `COc1ccc2nccc(N3CC(N(CCO)C[C@@H]4CN(c5ccc6c(c5)NC(=O)CS6)C(=O)O4)C3)c2n1` [Example 128, 6-[(R)-5-({(2-Hydroxy-ethyl)-[1-(6-methoxy-[1,5]naphthyridin-4-yl)-azetidin-3-yl]-amino}-methyl)-2-oxo-oxazolidin-3-yl]-4H-benzo[1,4]thiazin-3-one] the value was at most 0.031 µg/mL; for `COc1ccc2ncc(F)c(N3CC[C@H](NC[C@@H]4CN(c5ccc(OC(F)F)cc5)C(=O)O4)C3)c2n1` [Example 171, (R)-3-(4-Difluoromethoxy-phenyl)-5-{[(S)-1-(3-fluoro-6-methoxy-[1,5]naphthyridin-4-yl)-pyrrolidin-3-ylamino]-methyl}-oxazolidin-2-one], 0.063 µg/mL (≈ 0.125 µM).

For the compound `COc1ccc2nccc(N3CCN(C[C@@H]4CN(c5cccc(OC(F)(F)F)c5)C(=O)O4)CC3)c2n1` [Example 10, (R)-5-[4-(6-Methoxy-[1,5]naphthyridin-4-yl)-piperazin-1-ylmethyl]-3-(3-trifluoromethoxy-phenyl)-oxazolidin-2-one], 0.25 µg/mL (≈ 0.497 µM) was the least that counted as inhibitory (MIC). In turn, `COc1ccc2nccc(N3CCN(C[C@@H]4CN(c5ccc(C)c(C(F)(F)F)c5)C(=O)O4)CC3)c2n1` [Example 18, (R)-5-[4-(6-Methoxy-[1,5]naphthyridin-4-yl)-piperazin-1-ylmethyl]-3-(4-methyl-3-trifluoromethyl-phenyl)-oxazolidin-2-one] had a minimal inhibitory concentration (MIC) of at most 0.031 µg/mL. For the compound `COc1ccc2nccc(N3CC(NC[C@@H]4CN(c5ccc6c(c5)OCCO6)C(=O)O4)C3)c2n1` [Example 51, (R)-3-(2,3-Dihydro-benzo[1,4]dioxin-6-yl)-5-{[1-(6-methoxy-[1,5]naphthyridin-4-yl)-azetidin-3-ylamino]-methyl}-oxazolidin-2-one], the MIC was at most 0.031 µg/mL. Still for that read-out and setting: for `COc1ccc2nccc(N3CC[C@@H](CNC[C@@H]4CN(c5ccc6c(c5)NC(=O)CO6)C(=O)O4)C3)c2n1` [Example 168, 6-[(R)-5-({[(S)-1-(6-Methoxy-[1,5]naphthyridin-4-yl)-pyrrolidin-3-ylmethyl]-amino}-methyl)-2-oxo-oxazolidin-3-yl]-4H-benzo[1,4]oxazin-3-one] the value was at most 0.031 µg/mL; for `COc1ccc2nccc(N3CC(NC[C@@H]4CN(c5ccc(OC(F)F)cc5)C(=O)O4)C3)c2n1` [Example 176, (R)-3-(4-Difluoromethoxy-phenyl)-5-{[1-(6-methoxy-[1,5]naphthyridin-4-yl)-azetidin-3-ylamino]-methyl}-oxazolidin-2-one], at most 0.031 µg/mL; for `COc1ccc2nccc(N3CC[C@@H](NC[C@@H]4CN(c5ccc6c(c5)NC(=O)CO6)C(=O)O4)C3)c2n1` [Example 72, 6-((R)-5-{[(R)-1-(6-Methoxy-[1,5]naphthyridin-4-yl)-pyrrolidin-3-ylamino]-methyl}-2-oxo-oxazolidin-3-yl)-4H-benzo[1,4]oxazin-3-one], at most 0.031 µg/mL. The same measure, in the same setting: with `CCCc1ccc(N2C[C@@H](CN3CCN(c4ccnc5ccc(OC)nc45)CC3)OC2=O)cc1` [Example 25, (R)-5-[4-(6-Methoxy-[1,5]naphthyridin-4-yl)-piperazin-1-ylmethyl]-3-(4-propyl-phenyl)-oxazolidin-2-one] the figure was at most 0.031 µg/mL.

Values taken from US8217029B2, “Oxazolidinone antibiotics” (Actelion Pharmaceuticals Ltd, priority 2007, dated 2012).
